Assay: mn = molality of the nth substance listed, in mol/kg
Conditions: Liquid, Vibrating tube method

[Br-].[Br-].[Zn+2] [zinc bromide] + CCO
Conditions | mass density [kg/m3]
373.14 K, 19874 kPa, m1 = 0.9305 | 872.91
373.14 K, 24846 kPa, m1 = 1.887 | 1005.15
373.14 K, 24985 kPa, m1 = 0.05681 | 753.48
373.14 K, 25624 kPa, m1 = 0.3043 | 790.48
373.14 K, 34851 kPa, m1 = 0.3043 | 799.55
373.14 K, 39921 kPa, m1 = 0.05681 | 767.81
373.15 K, 1032 kPa, m1 = 0.05681 | 723.97
373.15 K, 1228 kPa, m1 = 0.3043 | 761.13
373.15 K, 1745 kPa, m1 = 1.49 | 926.45
373.15 K, 4944 kPa, m1 = 0.4384 | 785.45
373.15 K, 5301 kPa, m1 = 1.49 | 931.02
373.15 K, 9796 kPa, m1 = 0.1696 | 752.88
373.15 K, 10025 kPa, m1 = 0.3043 | 772.61
373.15 K, 10059 kPa, m1 = 1.49 | 936.9
373.15 K, 14641 kPa, m1 = 0.1696 | 758.82
373.15 K, 14690 kPa, m1 = 0.9305 | 867.04
373.15 K, 14903 kPa, m1 = 0.4384 | 797.84
373.15 K, 15214 kPa, m1 = 1.49 | 942.98
373.15 K, 15627 kPa, m1 = 0.05681 | 742.91
373.15 K, 19954 kPa, m1 = 1.49 | 948.31
373.15 K, 20147 kPa, m1 = 0.3043 | 784.56
373.15 K, 24995 kPa, m1 = 0.9305 | 878.38
373.15 K, 25487 kPa, m1 = 1.49 | 954.2
373.15 K, 29987 kPa, m1 = 1.49 | 958.73
373.15 K, 30014 kPa, m1 = 0.05681 | 758.65
373.15 K, 34798 kPa, m1 = 0.4384 | 818.78
373.15 K, 35026 kPa, m1 = 1.49 | 963.54
373.15 K, 35841 kPa, m1 = 0.05681 | 764.21
373.15 K, 39669 kPa, m1 = 0.1696 | 784.45
373.15 K, 39689 kPa, m1 = 0.4384 | 823.15
373.15 K, 39845 kPa, m1 = 0.3043 | 804
373.15 K, 39954 kPa, m1 = 1.49 | 967.95
373.16 K, 5415 kPa, m1 = 0.3043 | 766.72
373.16 K, 10024 kPa, m1 = 0.05681 | 735.99
373.16 K, 15428 kPa, m1 = 0.3043 | 779.16
373.16 K, 29954 kPa, m1 = 0.3043 | 794.87
373.16 K, 34801 kPa, m1 = 0.1696 | 780.13
373.16 K, 34880 kPa, m1 = 1.887 | 1014.97
373.16 K, 34946 kPa, m1 = 0.9305 | 888.07
373.17 K, 1840 kPa, m1 = 0.9305 | 851.03
373.17 K, 5196 kPa, m1 = 0.9305 | 855.41
373.17 K, 9909 kPa, m1 = 0.9305 | 861.33
373.17 K, 19733 kPa, m1 = 0.1696 | 764.71
373.17 K, 19793 kPa, m1 = 0.4384 | 803.46
373.17 K, 20061 kPa, m1 = 0.05681 | 748.07
373.17 K, 29790 kPa, m1 = 0.9305 | 883.2
373.17 K, 39725 kPa, m1 = 1.887 | 1019.24
373.17 K, 39848 kPa, m1 = 0.9305 | 892.38
393.11 K, 5006 kPa, m1 = 0.1696 | 724.69
393.12 K, 5021 kPa, m1 = 1.887 | 958.47
393.12 K, 5106 kPa, m1 = 0.9305 | 833.37
393.12 K, 20028 kPa, m1 = 0.1696 | 745.51
393.12 K, 20063 kPa, m1 = 0.4384 | 784.5
393.12 K, 25074 kPa, m1 = 0.4384 | 790.6
393.12 K, 34785 kPa, m1 = 1.887 | 995.67
393.12 K, 34930 kPa, m1 = 0.4384 | 801.35
393.12 K, 39767 kPa, m1 = 1.887 | 1000.55
393.13 K, 9820 kPa, m1 = 0.4384 | 770.68
393.13 K, 19900 kPa, m1 = 1.887 | 978.73
393.13 K, 30105 kPa, m1 = 0.9305 | 865.29
393.13 K, 39972 kPa, m1 = 0.4384 | 806.21
393.14 K, 1801 kPa, m1 = 0.9305 | 828.39
393.14 K, 5624 kPa, m1 = 0.3043 | 745.3
393.14 K, 9870 kPa, m1 = 0.9305 | 840.24
393.14 K, 14926 kPa, m1 = 0.4384 | 777.8
393.14 K, 15321 kPa, m1 = 0.05681 | 722.2
393.14 K, 19767 kPa, m1 = 0.9305 | 853.32
393.14 K, 24945 kPa, m1 = 0.3043 | 771.16
393.14 K, 29892 kPa, m1 = 0.1696 | 757.28
393.14 K, 29921 kPa, m1 = 0.05681 | 740.47
393.14 K, 29972 kPa, m1 = 0.4384 | 796.15
393.15 K, 1241 kPa, m1 = 0.05681 | 701.02
393.15 K, 1627 kPa, m1 = 0.3043 | 739.2
393.15 K, 1798 kPa, m1 = 1.887 | 953.48
393.15 K, 1921 kPa, m1 = 1.49 | 903.69
393.15 K, 5026 kPa, m1 = 1.49 | 908.13
393.15 K, 10025 kPa, m1 = 0.3043 | 751.72
393.15 K, 10167 kPa, m1 = 0.1696 | 732.24
393.15 K, 10215 kPa, m1 = 0.05681 | 714.93
393.15 K, 10412 kPa, m1 = 1.49 | 915.55
393.15 K, 15026 kPa, m1 = 1.49 | 921.63
393.15 K, 19932 kPa, m1 = 0.05681 | 728.38
393.15 K, 20215 kPa, m1 = 1.49 | 928.15
393.15 K, 24815 kPa, m1 = 0.9305 | 859.38
393.15 K, 24872 kPa, m1 = 1.887 | 984.66
393.15 K, 25654 kPa, m1 = 1.49 | 934.64
393.15 K, 29841 kPa, m1 = 0.3043 | 776.76
393.15 K, 29885 kPa, m1 = 1.887 | 990.35
393.15 K, 29954 kPa, m1 = 1.49 | 939.52
393.15 K, 35014 kPa, m1 = 1.49 | 944.97
393.15 K, 39824 kPa, m1 = 0.05681 | 750.71
393.15 K, 39865 kPa, m1 = 0.3043 | 787.01
393.15 K, 39921 kPa, m1 = 1.49 | 949.96
393.15 K, 39924 kPa, m1 = 0.1696 | 767.7
393.16 K, 1957 kPa, m1 = 0.1696 | 720.03
393.16 K, 5064 kPa, m1 = 0.05681 | 707.12
393.16 K, 14857 kPa, m1 = 0.1696 | 738.74
393.16 K, 15924 kPa, m1 = 0.3043 | 759.83
393.16 K, 24739 kPa, m1 = 0.1696 | 751.32
393.16 K, 25067 kPa, m1 = 0.05681 | 734.81
393.16 K, 34854 kPa, m1 = 0.3043 | 782.09
393.16 K, 34855 kPa, m1 = 0.1696 | 762.63
393.16 K, 34890 kPa, m1 = 0.9305 | 870.24
393.16 K, 35621 kPa, m1 = 0.05681 | 746.57
393.16 K, 39922 kPa, m1 = 0.9305 | 875.04
393.17 K, 4784 kPa, m1 = 0.4384 | 763.23
393.17 K, 14838 kPa, m1 = 0.9305 | 847.01
393.17 K, 14975 kPa, m1 = 1.887 | 972.19
393.17 K, 19958 kPa, m1 = 0.3043 | 765.06
393.18 K, 10012 kPa, m1 = 1.887 | 965.38
393.19 K, 1568 kPa, m1 = 0.4384 | 758.24
